Results: the supplement of paper PMC10307832

Tests used:
Assay in all cases: relative viability (nuclei count vs DMSO), 5 days (fraction); higher = more cells survive
Metformin + Alpelisib = compound: CN(C)C(=N)NC(=N)N [Metformin] + Cc1nc(NC(=O)N2CCC[C@H]2C(N)=O)sc1-c1ccnc(C(C)(C)C(F)(F)F)c1 [Alpelisib] (partner 2 µM)
Method in brief: (§1)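 Nuclei were stained with Hoechst during a one-step fixation (final 0.05% Triton X-100, 1% formaldehyde, 1 ug/ml Hoechst) carried out 5 days after dosing, then counted on 4× images. The cells, lung cancer lines in 1536-well plates, had been dosed by pin tool the day after seeding with one drug alone or a fixed anchor-drug dose plus five library-drug doses (not always all listed) in √10 steps. Relative viability is the nuclei count in treated wells divided by that in vehicle wells, and each value is the median of duplicate plates.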

Metformin + Decitabine = compound: CN(C)C(=N)NC(=N)N [Metformin] + Nc1ncn([C@H]2C[C@H](O)[C@@H](CO)O2)c(=O)n1 [Decitabine] (partner 2 µM)
Method in brief: as §1

Apatinib + Crizotinib = compound: N#CC1(c2ccc(NC(=O)c3cccnc3NCc3ccncc3)cc2)CCCC1 [Apatinib] + C[C@@H](Oc1cc(-c2cnn(C3CCNCC3)c2)cnc1N)c1c(Cl)ccc(F)c1Cl [Crizotinib] (partner 1 µM)
Method in brief: as §1

Apatinib + Alpelisib = compound: N#CC1(c2ccc(NC(=O)c3cccnc3NCc3ccncc3)cc2)CCCC1 [Apatinib] + Cc1nc(NC(=O)N2CCC[C@H]2C(N)=O)sc1-c1ccnc(C(C)(C)C(F)(F)F)c1 [Alpelisib] (partner 2 µM)
Method in brief: as §1

Cell Line: NCI-H460
- relative viability (Metformin + Alpelisib; first compound 31.62 µM): 0.471
- relative viability (Metformin + Alpelisib; first compound 100 µM): 0.534
- relative viability (Metformin + Alpelisib; first compound 316.23 µM): 0.502
- relative viability (Metformin + Alpelisib; first compound 1000 µM): 0.471
- relative viability (Metformin + Decitabine; first compound 31.62 µM): 0.444
- relative viability (Metformin + Decitabine; first compound 100 µM): 0.493
- relative viability (Metformin + Decitabine; first compound 316.23 µM): 0.412
- relative viability (Metformin + Decitabine; first compound 1000 µM): 0.469
- relative viability (Apatinib + Crizotinib; first compound 0.08 µM): 1.04
- relative viability (Apatinib + Crizotinib; first compound 0.253 µM): 0.907
- relative viability (Apatinib + Crizotinib; first compound 0.8 µM): 0.727
- relative viability (Apatinib + Crizotinib; first compound 2.53 µM): 0.848
- relative viability (Apatinib + Crizotinib; first compound 8 µM): 0.857
- relative viability (Apatinib + Alpelisib; first compound 0.08 µM): 0.557
- relative viability (Apatinib + Alpelisib; first compound 0.253 µM): 0.478
- relative viability (Apatinib + Alpelisib; first compound 0.8 µM): 0.475
- relative viability (Apatinib + Alpelisib; first compound 2.53 µM): 0.498
- relative viability (Apatinib + Alpelisib; first compound 8 µM): 0.479
